Test results published in US20210260051A1, “COMBINATION OF EZH2 INHIBITOR AND CHECKPOINT THERAPY FOR THE TREATMENT OF CANCER” (Board of Regents, The University of Texas System, priority 2018, published 2021).

Assays:
[1] = tested on: GFP+FoxP3+ regulatory T cells (iTregs); assay: RNA sequencing of GFP+FoxP3+ regulatory T cells differentiated with CPI-1205 or DMSO; format: cell-based, mouse; settings: CPI-1205 vs DMSO
Description: FIGS. 5A-5C: Naïve T cells from FoxP3enhanced green fluorescent protein (eGFP) C57BL/6 mice that were differentiated into iTregs in the presence or absence of CPI-1205. GFP^+FoxP3^+ regulatory T cells were subsequently used for RNA sequencing analysis. (FIG. 5A) Ingenuity Pathway Analysis of RNA sequencing data of regulatory T cells differentiated in the presence of DMSO or CPI-1205. (FIG. 5B) Differentially expressed genes (DEGs) seen following differentiation of inducible regulatory T cells in presence of CPI-1205 or DMSO. (FIG. 5C) Luminex-based cytokine analysis of culture supernatant from inducible regulatory T cells following differentiation with CPI-1205 or DMSO. 2 tailed student t test was used to determine significance; NS, not significant. **p<0.01.
To understand CPI-1205-mediated molecular changes underlying the loss of suppressive activity of regulatory T cells, naïve murine T cells (CD4^+CD25^low CD44^low CD62^hi) from FoxP3-enhanced green fluorescent protein (eGFP) C57BL/6 mice were differentiated into iTregs in the presence or absence of CPI-1205. Purified GFP^+FoxP3^+ regulatory T cells were subsequently used for RNA sequencing analysis. […] The cytokine levels were subsequently examined in the culture supernatant of the iTregs that were differentiated with and without CPI-1205. […] CPI-1205 can also skew the phenotype of iTregs to pro-inflammatory cytokine producing effector-like T cells. In the study, it was noted that EZH2 inhibition leads to decreased expression of not only FoxP3 but also other critical genes, such as NRP1 and BACH2, which are required for regulatory T cell stability (16-18). CPI-1205 treated regulatory T cells seem to acquire the phenotype of so called “exFoxP3” cells which was previously shown to have an activated memory phenotype (Zhou et al., 2009).
(§1) In vitro T cell assays. Human peripheral regulatory T cells were isolated from peripheral blood mononuclear cells by enriching for CD4^+CD127^low CD25^+ cells using the EasySep Human Regulatory T Cell Isolation Kit (STEMCELL Technologies, Cambridge, Mass.). For mouse in vitro regulatory T cell differentiation, CD4^+CD25^low CD44^low CD62L^hinaïve splenic T cells were isolated from C57BL/6 mice using BD FACSAria (BD Biosciences, San Jose, Calif.). The cells were then differentiated in the presence of recombinant murine IL-2 (R&D, 402-ML), tumor growth factor-β (TGF-β, R&D 7666-MB), CPI-1205 or dimethyl sulfoxide (DMSO) and cultured for 6 days.
RNA sequencing. RNA was extracted from peripheral CD4 T cells isolated from patients with metastatic melanoma and from in vitro differentiated GFP^+ regulatory T cells. RNA sequencing reactions were performed by Active Motif (Carlsbad, Calif.) and Ocean Ridge Biosciences (Deerfield, Fla.) using an Illumina HiSeq 50-bp platform. For bioinformatics analysis, the raw reads were aligned to the mm10 reference genome using TopHat2. HTSeq count was used to count the raw reads that were uniquely mapped to each gene. DESeq2 was then applied to normalize the raw read counts and identify the differentially expressed genes between the groups. The beta-uniform mixture model was used to fit the p value distribution for multiple testing adjustments. The lists of differentially expressed genes were then used as input into Ingenuity Pathway Analysis for pathway analysis. RNA-sequencing data were deposited in the NCBI's Gene Expression Omnibus database.

[2] = tested on: CXCL9 and CXCL10 in MB49 tumor; assay: relative CXCL9 and CXCL10 expression in tumor of MB49 tumor-bearing mice; format: in vivo, mouse; settings: FIG. 10C-D
[3] = tested on: Nalm-6 target tumor cells; assay: T cell cytotoxicity assay; format: cell-based, human; settings: in vitro
Experimental: T cell cytotoxicity assay was carried out using activated effector T cells (isolated with EasySep Human Naïve CD4^+ T Cell Isolation Kit and EasySep Human CD8^+ T Cell Enrichment Kit; STEMCELL Technologies). Purified naïve CD4 and total CD8 T cells were pre-activated with plate-bound anti-CD3/soluble anti-CD28 for 6 days in the presence or absence of CPI-1205. Activated T cells were then washed and challenged with Nalm-6 target tumor cells, then labeled with CellTrace violet to enable their subsequent discrimination from effector cells. The T cell:tumor cell co-cultures were conducted at different effector:target (E:T) ratios, in the presence of the blinatumomab antibody (10 ng/ml) and CPI-1205 for 20 hours as previously described (3). Target cell death was determined by summing the percentage of apoptotic (Annexin V^+) and dead or dying (7AAD+) target (CellTrace violet^+) cells after overnight culture.

[4] = tested on: murine inducible regulatory T cell (iTreg) differentiation; assay: in vitro differentiation of murine naïve CD4 T cells into inducible regulatory T cells with EZH2 inhibitors; format: cell-based, mouse; settings: compared with the other EZH2 inhibitors; FIG. 4A
Description: FIGS. 4A-B: (FIG. 4A) Percentages of inducible regulatory T cells following in vitro differentiation of murine naïve CD4 T cells into regulatory T cells in the presence and absence of various EZH2 inhibitors. (FIG. 4B) Representative counts of viable cells in culture following treatment with EZH2 inhibitors. Data is representative of three independent experiments. One-way ANOVA was used to determine significance between the groups. **p<0.01.
To investigate whether the data observed in the FoxP3^creEZH2^fl/fl mouse model could be recapitulated by pharmacological inhibition of EZH2 in T cells, the effect of different EZH2 inhibitors on regulatory T cell differentiation was compared. CPI-1205 was compared with commercially available EZH2 inhibitors.
as §1

[5] = patients, continuous daily dosing; cited from earlier work

SMILES: COc1cc(C)[nH]c(=O)c1CNC(=O)c1c(C)n([C@H](C)C2CCN(CC(F)(F)F)CC2)c2ccccc12 [CPI-1205, N-[(4-methoxy-6-methyl-2-oxo-1H-pyridin-3-yl)methyl]-2-methyl-1-[(1R)-1-[1-(2,2,2-trifluoroethyl)piperidin-4-yl]ethyl]indole-3-carboxamide]
- pro-inflammatory pathways (Th-1/Th-2), Ingenuity Pathway Analysis ([1]; FIG. 5A): upregulation
- BACH2 expression ([1]; FIG. 5B): decreased
- FoxP3 expression ([1]; FIG. 5B): decreased
- effector cytokines and chemokines (differentially expressed genes) ([1]; FIG. 5B): increase
- neuropilin 1 (NRP1) expression ([1]; FIG. 5B): decreased
- CXCL9 expression in tumor [2]: increased
- CXL10 expression in tumor [2]: increased
- cytotoxicity of human effector T cells [3]: enhanced
- suppression of murine inducible regulatory T cell (iTreg) differentiation [4]: most striking effect
- dose-limiting toxicities [5]: no dose-limiting toxicities
- tolerability [5]: well tolerated
